The target in the test is human-thrombin (Homo sapiens, UniProt P00734). The following applies: Example 2, thrombin 1 pM.

In patent US11346839B2, “Method for determining the interaction between a ligand and a receptor” (INSINGULO AB, priority 2018, dated 2022) one finds kobs data, which are given here for one molecule.

Read-outs that look alike come from different tables or passages of the source.

Method: To yield liposomes with a diameter of ˜100 nm first the required lipids were solved in chloroform and mixed. In total 5 mg 2-Oleoyl-1-palmitoyl-sn-glycero-3-phosphocholine, 0.01 mg, 1,2-dioleoyl-sn-glycero-3-phosphoethanolamine-N-dibenzocyclooctyl and 0.005 mg 1,2-dipalmitoyl-sn-glycero-3-phosphoethanolamine-N-(lissamine rhodamine B sulfonyl) were mixed together. The lipid mixture was vacuum dried overnight. The dried lipids were hydrated in 1 ml HBS (150 mM NaCl, 20 mM/L HEPES at pH7.2) under gentle agitation. The lipid suspension was extruded through a PC-membrane with 100 nm pore size eleven times. Concentration of the liposomes was determined by light absorption at 544 nm and the concentration of the liposome solution was adjusted to 2.5 mg/ml. This equals a liposome concentration of approximately 30 nM.
To immobilize thrombin at the liposomes via click chemistry an azide-group was introduced to thrombin via NHS coupling. Therefore, 100 μL of human-thrombin at 2 mg/ml was mixed with 200 μL high salt PBS-buffer (10 mM Na2HPO4, 1.8 mM KH2PO4, 400 mM NaCl+33.5% Glycerol (v/v) at pH 7.4 and 13 μL NHS-PEG4-Azide at 10 mM. The mixture was incubated for 30 minutes at RT. The reaction was stopped by the addition of 500 μL high salt PBS-buffer (10 mM Na2HPO4, 1.8 mM KH2PO4, 400 mM NaCl+33.5% Glycerol (v/v) at pH 6.6.
1.5 μL of the thrombin-azide were mixed with 48.5 μL icecold CHES-buffer (20 mM CHES, 150 mM NaCl) at pH 8.5 and subsequently 50 μL of the liposome solution is added. This mix was stored for at least 30 minutes on ice. 10 μL of the reaction mix was diluted with 990 μL icecold CHES-buffer (20 mM CHES, 150 mM NaCl) at pH 8.5.
After curing, into each well of the microplate 10 μL of a solution containing 1 mg/ml PLL-g-PEG and 1 mg/ml PLL-g-PEG-biotin are added. The plate was incubated for at least 1 h under gentle orbital agitation. After the incubation each well was washed 10-times with HBS-buffer. The dilution ratio of every washing step was at least 1:10. […]
The single molecule microscope was based on a Nikon Ti-E base. […] Images are recorded via a [sequence] […]

As to `N=C(N)c1ccc(CNC(=O)[C@@H]2CCN2C(=O)[C@H](NCC(=O)O)C2CCCCC2)cc1` [melagatran], the kobs is 0.22 s⁻¹ (one hundred wells summed, melagatran 7.4 nM (FIG. 6)); “could not be reliably fitted” (single well, melagatran 7.4 nM (FIG. 4)); 0.43 s⁻¹ (two wells summed, melagatran 7.4 nM (FIG. 5)).
